In BigSolDB 2.1:

O=[N+]([O-])c1cn[nH]c1
solubility (mole fraction)
Conditions | in acetonitrile | in ethanol | in methanol | in water
278.15 K | 0.0478 | 0.037 | 0.0491 | 0.00209
280.65 K | 0.0491 | 0.0389 | 0.0502 | 0.00218
283.15 K | 0.0508 | 0.0405 | 0.0517 | 0.00231
285.65 K | 0.0524 | 0.0429 | 0.0532 | 0.00248
288.15 K | 0.0541 | 0.045 | 0.0558 | 0.00268
290.65 K | 0.0558 | 0.047 | 0.0583 | 0.00286
293.15 K | 0.0576 | 0.0494 | 0.061 | 0.00315
295.65 K | 0.0595 | 0.0521 | 0.0638 | 0.00339
298.15 K | 0.0623 | 0.0549 | 0.067 | 0.0037
300.65 K | 0.0648 | 0.0582 | 0.0698 | 0.00401
303.15 K | 0.0674 | 0.0614 | 0.073 | 0.0044
305.65 K | 0.0703 | 0.0647 | 0.0758 | 0.00477
308.15 K | 0.0731 | 0.0677 | 0.0789 | 0.00526
310.65 K | 0.0758 | 0.0714 | 0.0817 | 0.00586
313.15 K | 0.079 | 0.0747 | 0.0848 | 0.00653
315.65 K | 0.0828 | 0.0784 | 0.0885 | 0.00724
318.15 K | 0.0872 | 0.0828 | 0.092 | 0.00802
